Source: PubChem BioAssay AID1919009 (Molecular Pharmacology Branch, DTP, NCI, 2023)
pIC50: −log10 of the molar value.

Tested on: K24384-001-R-PDC complex spheroid growth
Assay: Anticancer human tumor K24384-001-R-PDC patient-derived pancreatic adenocarcinoma cell line growth inhibition [AhR]
Details: for pIC50: curve of first compound; for viability, T/C: stronger effect = lower value
Procedure, shortened: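 Agents were dosed in half-log steps down from roughly clinical Cmax, or from 10 microM where Cmax was unknown, alone and with AhR antagonists. Read-out: percent test/control growth of tumor spheroids containing HUVEC and MSC stromal cells.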

[1] = second compound 0.1 µM, first compound 0.0316 µM
[2] = second compound 0.1 µM, first compound 0.1 µM
[3] = second compound 0.316 µM, first compound 0.0316 µM
[4] = second compound 0.316 µM, first compound 0.1 µM
[5] = second compound 1 µM, first compound 0.0316 µM
[6] = second compound 1 µM, first compound 0.1 µM
[7] = second compound 3.16 µM, first compound 0.0316 µM
[8] = second compound 3.16 µM, first compound 0.1 µM
[9] = second compound 10 µM, first compound 0.0316 µM
[10] = second compound 10 µM, first compound 0.1 µM
[11] = second compound 0.1 µM, first compound 0.316 µM
[12] = second compound 0.1 µM, first compound 1 µM
[13] = second compound 0.1 µM, first compound 3.16 µM
[14] = second compound 0.1 µM, first compound 10 µM
[15] = second compound 0.316 µM, first compound 0.316 µM
[16] = second compound 0.316 µM, first compound 1 µM
[17] = second compound 0.316 µM, first compound 3.16 µM
[18] = second compound 0.316 µM, first compound 10 µM
[19] = second compound 1 µM, first compound 0.316 µM
[20] = second compound 1 µM, first compound 1 µM
[21] = second compound 1 µM, first compound 3.16 µM
[22] = second compound 1 µM, first compound 10 µM
[23] = second compound 3.16 µM, first compound 0.316 µM
[24] = second compound 3.16 µM, first compound 1 µM
[25] = second compound 3.16 µM, first compound 3.16 µM
[26] = second compound 3.16 µM, first compound 10 µM
[27] = second compound 10 µM, first compound 0.316 µM
[28] = second compound 10 µM, first compound 1 µM
[29] = second compound 10 µM, first compound 3.16 µM
[30] = second compound 10 µM, first compound 10 µM
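Wherever viability, T/C is given: percent of DMSO vehicle-treated spheroid viability set as 100%.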

In the case of `CC[C@@]1(O)C(=O)OCc2c1cc1n(c2=O)Cc2cc3c(CN(C)C)c(O)ccc3nc2-1` + Cc1cncc(-c2nc(NCCc3c[nH]c4ccccc34)c3ncn(C(C)C)c3n2)c1, the pIC50 (second compound 0.1 µM) was 7.37, the pIC50 (second compound 0.316 µM) was 7.37 and the pIC50 (second compound 1 µM) was 7.51. It also gave a pIC50 (second compound 3.16 µM) of less than 7.00, a pIC50 (second compound 10 µM) greater than 9.50 and a viability, T/C (second compound 0.1 µM, first compound 0.000316 µM) of 97.6%. It also gave a viability, T/C (second compound 0.1 µM, first compound 0.001 µM) of 92.5%, a viability, T/C (second compound 0.1 µM, first compound 0.00316 µM) of 81.2% and a viability, T/C (second compound 0.1 µM, first compound 0.01 µM) of 67.5%. For the same molecule, the viability, T/C [1] was 55.5%, the viability, T/C [2] was 37.4% and the viability, T/C (second compound 0.316 µM, first compound 0.000316 µM) was 118%. The viability, T/C (second compound 0.316 µM, first compound 0.001 µM) was 100%, the viability, T/C (second compound 0.316 µM, first compound 0.00316 µM) was 87.9% and the viability, T/C (second compound 0.316 µM, first compound 0.01 µM) was 73.9%. It also gave a viability, T/C [3] of 51.6%, a viability, T/C [4] of 38.2% and a viability, T/C (second compound 1 µM, first compound 0.000316 µM) of 91.3%. It also gave a viability, T/C (second compound 1 µM, first compound 0.001 µM) of 111%, a viability, T/C (second compound 1 µM, first compound 0.00316 µM) of 95.5% and a viability, T/C (second compound 1 µM, first compound 0.01 µM) of 72.4%. It also gave a viability, T/C [5] of 49.1%, a viability, T/C [6] of 47% and a viability, T/C (second compound 3.16 µM, first compound 0.000316 µM) of 84.3%. For the same molecule, the viability, T/C (second compound 3.16 µM, first compound 0.001 µM) was 93.8%, the viability, T/C (second compound 3.16 µM, first compound 0.00316 µM) was 86.4% and the viability, T/C (second compound 3.16 µM, first compound 0.01 µM) was 59.3%. The viability, T/C [7] was 52%, the viability, T/C [8] was 49.4% and the viability, T/C (second compound 10 µM, first compound 0.000316 µM) was 12.7%. It also gave a viability, T/C (second compound 10 µM, first compound 0.001 µM) of 10.1%, a viability, T/C (second compound 10 µM, first compound 0.00316 µM) of 14.5% and a viability, T/C (second compound 10 µM, first compound 0.01 µM) of 7.56%. It also gave a viability, T/C [9] of 5.07% and a viability, T/C [10] of 6.81%.

`CCc1c2c(nc3ccc(O)cc13)-c1cc3c(c(=O)n1C2)COC(=O)[C@]3(O)CC` + Cc1cncc(-c2nc(NCCc3c[nH]c4ccccc34)c3ncn(C(C)C)c3n2)c1 gave a pIC50 (second compound 0.1 µM) of 8.53, a pIC50 (second compound 0.316 µM) of 8.44 and a pIC50 (second compound 1 µM) of 8.25. For the same molecule, the pIC50 (second compound 3.16 µM) was 8.22, the pIC50 (second compound 10 µM) was greater than 9.02 and the viability, T/C (second compound 0.1 µM, first compound 0.000949 µM) was 67.3%. The viability, T/C (second compound 0.1 µM, first compound 0.003 µM) was 48.4%, the viability, T/C (second compound 0.1 µM, first compound 0.00949 µM) was 33.4% and the viability, T/C (second compound 0.1 µM, first compound 0.03 µM) was 34.9%. For the same molecule, the viability, T/C (second compound 0.1 µM, first compound 0.0949 µM) was 28%, the viability, T/C (second compound 0.1 µM, first compound 0.3 µM) was 16.8% and the viability, T/C (second compound 0.316 µM, first compound 0.000949 µM) was 68.9%. The viability, T/C (second compound 0.316 µM, first compound 0.003 µM) was 47.1%, the viability, T/C (second compound 0.316 µM, first compound 0.00949 µM) was 37.6% and the viability, T/C (second compound 0.316 µM, first compound 0.03 µM) was 35.9%. It also gave a viability, T/C (second compound 0.316 µM, first compound 0.0949 µM) of 23.9%, a viability, T/C (second compound 0.316 µM, first compound 0.3 µM) of 14% and a viability, T/C (second compound 1 µM, first compound 0.000949 µM) of 76.9%. For the same molecule, the viability, T/C (second compound 1 µM, first compound 0.003 µM) was 59.1%, the viability, T/C (second compound 1 µM, first compound 0.00949 µM) was 41.5% and the viability, T/C (second compound 1 µM, first compound 0.03 µM) was 32%. It also gave a viability, T/C (second compound 1 µM, first compound 0.0949 µM) of 26.4%, a viability, T/C (second compound 1 µM, first compound 0.3 µM) of 16.8% and a viability, T/C (second compound 3.16 µM, first compound 0.000949 µM) of 60%. The viability, T/C (second compound 3.16 µM, first compound 0.003 µM) was 52.6%, the viability, T/C (second compound 3.16 µM, first compound 0.00949 µM) was 49.2% and the viability, T/C (second compound 3.16 µM, first compound 0.03 µM) was 29.8%. It also gave a viability, T/C (second compound 3.16 µM, first compound 0.0949 µM) of 21.7%, a viability, T/C (second compound 3.16 µM, first compound 0.3 µM) of 13.9% and a viability, T/C (second compound 10 µM, first compound 0.000949 µM) of 5.03%. The viability, T/C (second compound 10 µM, first compound 0.003 µM) was 5.63%, the viability, T/C (second compound 10 µM, first compound 0.00949 µM) was 6.51% and the viability, T/C (second compound 10 µM, first compound 0.03 µM) was 3.31%. The viability, T/C (second compound 10 µM, first compound 0.0949 µM) was 4.86% and the viability, T/C (second compound 10 µM, first compound 0.3 µM) was 3.7%.

For `Nc1ccccc1NC(=O)c1ccc(CNC(=O)OCc2cccnc2)cc1` + Cc1cncc(-c2nc(NCCc3c[nH]c4ccccc34)c3ncn(C(C)C)c3n2)c1, the pIC50 (second compound 0.1 µM) was 5.76, the pIC50 (second compound 0.316 µM) was 5.96 and the pIC50 (second compound 1 µM) was 5.82. For the same molecule, the pIC50 (second compound 3.16 µM) was 6.02, the pIC50 (second compound 10 µM) was greater than 7.50 and the viability, T/C [1] was 90%. For the same molecule, the viability, T/C [2] was 86.7%, the viability, T/C [11] was 79.6% and the viability, T/C [12] was 69.3%. It also gave a viability, T/C [13] of 30.3%, a viability, T/C [14] of 6.17% and a viability, T/C [3] of 111%. It also gave a viability, T/C [4] of 108%, a viability, T/C [15] of 77.7% and a viability, T/C [16] of 48.3%. The viability, T/C [17] was 31%, the viability, T/C [18] was 3.5% and the viability, T/C [5] was 111%. It also gave a viability, T/C [6] of 99.8%, a viability, T/C [19] of 87% and a viability, T/C [20] of 56.6%. The viability, T/C [21] was 33.6%, the viability, T/C [22] was 2.82% and the viability, T/C [7] was 77.6%. The viability, T/C [8] was 93.2%, the viability, T/C [23] was 61.9% and the viability, T/C [24] was 43%. It also gave a viability, T/C [25] of 33.1%, a viability, T/C [26] of 1.51% and a viability, T/C [9] of 15.2%. It also gave a viability, T/C [10] of 10.7%, a viability, T/C [27] of 7.68% and a viability, T/C [28] of 5.34%. It also gave a viability, T/C [29] of 4.19% and a viability, T/C [30] of 0.39%.

Molecule `Nc1ccn(C2OC(CO)C(O)C2(F)F)c(=O)n1` (stereo not given) + Cc1cncc(-c2nc(NCCc3c[nH]c4ccccc34)c3ncn(C(C)C)c3n2)c1 has a pIC50 (second compound 0.1 µM) of 6.29, a pIC50 (second compound 0.316 µM) of 6.20 and a pIC50 (second compound 1 µM) of 6.03. For the same molecule, the pIC50 (second compound 3.16 µM) was 5.51, the pIC50 (second compound 10 µM) was greater than 7.50 and the viability, T/C [1] was 73.7%. It also gave a viability, T/C [2] of 74.8%, a viability, T/C [11] of 51.2% and a viability, T/C [12] of 42.9%. For the same molecule, the viability, T/C [13] was 32.4%, the viability, T/C [14] was 24.5% and the viability, T/C [3] was 104%. The viability, T/C [4] was 79.1%, the viability, T/C [15] was 50.8% and the viability, T/C [16] was 51.1%. It also gave a viability, T/C [17] of 35.1%, a viability, T/C [18] of 19.6% and a viability, T/C [5] of 98.1%. It also gave a viability, T/C [6] of 111%, a viability, T/C [19] of 74.2% and a viability, T/C [20] of 50.4%. It also gave a viability, T/C [21] of 41.6%, a viability, T/C [22] of 29.2% and a viability, T/C [7] of 117%. The viability, T/C [8] was 114%, the viability, T/C [23] was 83.9% and the viability, T/C [24] was 70.1%. It also gave a viability, T/C [25] of 51.7%, a viability, T/C [26] of 31.2% and a viability, T/C [9] of 13.9%. For the same molecule, the viability, T/C [10] was 11.2%, the viability, T/C [27] was 13.6% and the viability, T/C [28] was 8.91%. The viability, T/C [29] was 10.4% and the viability, T/C [30] was 10.4%.

`O=C(c1cc(Cc2n[nH]c(=O)c3ccccc23)ccc1F)N1CCN(C(=O)C2CC2)CC1` + Cc1cncc(-c2nc(NCCc3c[nH]c4ccccc34)c3ncn(C(C)C)c3n2)c1 showed a pIC50 (second compound 0.1 µM) of less than 5.00, a pIC50 (second compound 0.316 µM) of less than 5.00 and a pIC50 (second compound 1 µM) of less than 5.00. For the same molecule, the pIC50 (second compound 3.16 µM) was less than 5.00, the pIC50 (second compound 10 µM) was greater than 7.50 and the viability, T/C [1] was 128%. The viability, T/C [2] was 135%, the viability, T/C [11] was 140% and the viability, T/C [12] was 96.3%. It also gave a viability, T/C [13] of 78.5%, a viability, T/C [14] of 82.5% and a viability, T/C [3] of 155%. For the same molecule, the viability, T/C [4] was 157%, the viability, T/C [15] was 143% and the viability, T/C [16] was 117%. For the same molecule, the viability, T/C [17] was 106%, the viability, T/C [18] was 90.5% and the viability, T/C [5] was 137%. The viability, T/C [6] was 132%, the viability, T/C [19] was 142% and the viability, T/C [20] was 98.5%. It also gave a viability, T/C [21] of 128%, a viability, T/C [22] of 114% and a viability, T/C [7] of 106%. It also gave a viability, T/C [8] of 119%, a viability, T/C [23] of 135% and a viability, T/C [24] of 119%. It also gave a viability, T/C [25] of 119%, a viability, T/C [26] of 111% and a viability, T/C [9] of 17.7%. The viability, T/C [10] was 14%, the viability, T/C [27] was 13.2% and the viability, T/C [28] was 13.9%. The viability, T/C [29] was 10.4% and the viability, T/C [30] was 8.74%.
